Like-named read-outs stand apart in the source and are kept apart here. A value given as a limit tells only on which side of the number the result lay.

The target in experiment [1] is T1, hM3 (human Muscarinic receptor subtype 3) (Homo sapiens, UniProt P20309).
T1 construct: expressed in transfected cells; host or cells: CHO cells (Chinese hamster ovary cells, ATCC)
Nature of the experiment: Human M3 calcium mobilization FLIPR assay. The settings on record: hM3 expressed in CHO cells, intracellular Ca2+ release. In kind it is cell-based. As to the method:
Human M1, rat M1, human M3 and human M5 Calcium Mobilization FLIPR™ Assay
The compound activity in the present invention (EC50 or IC50) is measured using a 384 plate-based imaging assay that monitors drug induced intracellular Ca^2+ release in whole cells. Activation of hM1 (human Muscarinic receptor subtype 1, gene bank access NM_000738), rM1 (rat Muscarinic receptor subtype 1, gene bank access NM_080773), hM3 (human Muscarinic receptor subtype 3, gene bank access NM_000740NM_000740) and hM5 (human Muscarinic receptor subtype 5, gene bank access NM_0121258), receptors expressed in CHO cells (Chinese hamster ovary cells, ATCC) is quantified in a Molecular Devices FLIPR II™ instrument as an increase in fluorescent signal. Inhibition of hM3 and hM5 by compounds is determined by the decrease in fluorescent signal in response to 2 nM acetylcholine activation.
Prior to experiment, the cell culture medium is removed from the plates by inversion. […] Plates are incubated at 37° C. for 60 minutes prior to start the experiment. The incubation is terminated by washing the cells four times in assay buffer, leaving a residual 25 μl buffer per well. Cell plates are then transferred to the FLIPR, ready for compound additions.
The day of experiment, acetylcholine and compounds are diluted in assay buffer in three-fold concentration range (10 points serial dilution) for addition by FLIPR instrument. For all calcium assays, a baseline reading is taken for 10 seconds followed by the addition of 12.5 μl of compounds, resulting in a total well volume of 37.5 μl. Data is collected every second for 60 pictures and then every 6 seconds for 20 pictures prior to the addition of agonist. For hM3 and hM5, before agonist addition, a second baseline reading is taken for 10 seconds followed by the addition of 12.5 μl of agonist or buffer, producing a final volume of 50 μl. After agonist stimulation, the FLIPR continues to collect data every second for 60 pictures and then every 6 seconds for 20 pictures. The fluorescence emission is read using filter 1 (emission 510-570 nm) by the FLIPR on board CCD camera.
Calcium mobilization output data are calculated as the maximal relative fluorescence unit (RFU) minus the minimal value for both compound and agonist reading frame (except for hM1 and rM1 using only the maximal RFU). Data are analyzed using sigmoidal fits of a non-linear curve-fitting program (XLfit version 4.2.2 Excel add-in version 4.2.2 build 18 math 1Q version 2.1.2 build 18). All pEC50 and plC50 values are reported as arithmetic means ±standard error of mean of ‘n’ independent experiments.

The target in experiment [2] is T2, cloned human M4 receptor (human Muscarinic receptor subtype 4) (Homo sapiens, UniProt P08173).
T2 construct: purchased Perkin-Elmer RBHM4M; host or cells: Chinese hamster ovary cells (CHO) membranes
T2 sequence (P08173 1-479): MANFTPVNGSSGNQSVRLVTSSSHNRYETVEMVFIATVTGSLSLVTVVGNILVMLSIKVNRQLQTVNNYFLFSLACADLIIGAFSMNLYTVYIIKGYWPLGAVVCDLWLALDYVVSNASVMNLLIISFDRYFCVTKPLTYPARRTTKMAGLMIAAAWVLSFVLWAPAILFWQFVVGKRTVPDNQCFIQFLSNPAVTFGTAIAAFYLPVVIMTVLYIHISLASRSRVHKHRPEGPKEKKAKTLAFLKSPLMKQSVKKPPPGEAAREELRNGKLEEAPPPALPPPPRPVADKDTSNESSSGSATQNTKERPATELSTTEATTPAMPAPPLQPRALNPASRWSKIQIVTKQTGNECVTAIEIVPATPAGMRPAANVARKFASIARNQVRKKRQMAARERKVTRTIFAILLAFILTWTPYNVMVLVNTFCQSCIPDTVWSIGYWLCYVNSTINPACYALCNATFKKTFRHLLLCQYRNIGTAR
Nature of the experiment: hM4 receptor GTPγS binding. In kind it is biochemical. To be noted: CHO cell membranes expressing hM4, [35S]GTPγS binding. Summed up:
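Membranes from CHO cells expressing cloned human M4, with SPA beads, 20 µM GDP and 0.4 nM [35S]GTPγS in HEPES buffer pH 7.4, incubated 60 min at room temperature. Antagonism measured as reversal of 10 µM acetylcholine stimulation; 10-point, threefold dilution curves fitted sigmoidally to give EC50, IC50 and Emax.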
For orientation: GTPγS resists hydrolysis and so accumulates on activated G proteins.

T1 sequence (P20309 whole entry): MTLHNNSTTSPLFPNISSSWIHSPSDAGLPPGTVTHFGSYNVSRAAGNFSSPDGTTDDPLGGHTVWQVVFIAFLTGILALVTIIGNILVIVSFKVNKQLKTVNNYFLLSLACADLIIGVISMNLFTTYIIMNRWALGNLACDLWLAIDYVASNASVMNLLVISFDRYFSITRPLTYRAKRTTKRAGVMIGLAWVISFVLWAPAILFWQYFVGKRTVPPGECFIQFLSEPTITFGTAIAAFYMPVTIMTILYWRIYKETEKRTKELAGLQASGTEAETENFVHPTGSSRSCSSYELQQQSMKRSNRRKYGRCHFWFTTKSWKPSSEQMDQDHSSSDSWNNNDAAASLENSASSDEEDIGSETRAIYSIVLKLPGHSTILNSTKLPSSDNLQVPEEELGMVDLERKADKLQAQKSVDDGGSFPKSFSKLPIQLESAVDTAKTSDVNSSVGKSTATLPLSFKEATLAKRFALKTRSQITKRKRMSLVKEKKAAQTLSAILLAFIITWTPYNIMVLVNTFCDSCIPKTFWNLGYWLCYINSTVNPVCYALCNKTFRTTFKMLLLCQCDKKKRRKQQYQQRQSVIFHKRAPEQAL

As for `CCOC(=O)N1CCC(C)(N2CCC(N3C(=O)Cc4cc(F)c(C)cc43)CC2)C1` (single isomer, unassigned) [Example 81, ethyl 3-(4-(5-fluoro-6-methyl-2-oxoindolin-1-yl)piperidin-1-yl)-3-methylpyrrolidine-1-carboxylate], the EC50 was more than 13300 nM in experiment [1] (read-out: hM3 EC50) and 7070 nM in experiment [2] (read-out: hM4 EC50).
As to `COC(=O)N1CCC(C)(N2CCC(N3C(=O)Cc4cc(F)c(C)cc43)CC2)C1` (single isomer, unassigned) [Example 83, methyl 3-(4-(5-fluoro-6-methyl-2-oxoindolin-1-yl)piperidin-1-yl)-3-methylpyrrolidine-1-carboxylate], the EC50 in experiment [1] (hM3 EC50 (nM)) is more than 18400 nM; in experiment [2] (hM4 EC50 (nM)), 11300 nM.
For the molecule `CCOC(=O)N1CCC(C)(N2CCC(n3c(=O)[nH]c4ccccc43)CC2)C1` (stereo not drawn) [Example 1, ethyl 3-methyl-3-(4-(2-oxo-2,3-dihydro-1H-benzo[d]imidazol-1-yl)piperidin-1-yl)pyrrolidine-1-carboxylate], the figures for the EC50 in experiment [1] (read-out: hM3 EC50) and in experiment [2] (read-out: hM4 EC50) were 1400 nM and 1700 nM, respectively.
The corresponding values for `CCNC(=O)N1CCC(C)(N2CCC(n3c(=O)[nH]c4ccccc43)CC2)C1` (stereo not drawn) [Example 5, N-ethyl-3-methyl-3-(4-(2-oxo-2,3-dihydro-1H-benzo[d]imidazol-1-yl)piperidin-1-yl)pyrrolidine-1-carboxamide] are more than 40000 nM and more than 16000 nM.
The corresponding values for `CC1(N2CCC(n3c(=O)[nH]c4cc(F)ccc43)CC2)CCN(C(=O)OCCF)C1` (stereo not drawn) [Example 10, 2-fluoroethyl 3-(4-(5-fluoro-2-oxo-2,3-dihydro-1H-benzo[d]imidazol-1-yl)piperidin-1-yl)-3-methylpyrrolidine-1-carboxylate] are more than 40000 nM and 5170 nM.
The matching figures for `C#CCOC(=O)N1CCC(C)(N2CCC(n3c(=O)[nH]c4cc(F)ccc43)CC2)C1` (stereo not drawn) [Example 11, prop-2-ynyl 3-(4-(5-fluoro-2-oxo-2,3-dihydro-1H-benzo[d]imidazol-1-yl)piperidin-1-yl)-3-methylpyrrolidine-1-carboxylate]: 1130 nM and 714 nM.

As a reminder, the EC50 is the concentration needed to bring the measured effect to its halfway point.

(Values after US20090221642A1, “MUSCARINIC RECEPTOR AGONISTS, COMPOSITIONS, METHODS OF TREATMENT THEREOF, AND PROCESSES FOR PREPARATION THEREOF-176” (AstraZeneca AB, priority 2008, published 2009).)
